Data taken from US20210332073A1, “PROCESS FOR THE PREPARATION OF FERRIC CITRATE” (priority 2020, published 2021).
Structures can show the parent of a compound that is named as a salt.

Assay: Specific surface area of isolated ferric citrate
Assay type: physicochemical
Conditions: vacuum dried at 30-40° C.

| SMILES | specific surface area (Method B: two lots combined, sieve BSS 200/75 micron) | specific surface area (Method A step c: acetone dumped in one lot, 20 mesh sieve) |
| --- | --- | --- |
| O=C1CC2(O)CC(=O)[O][Fe]([O]1)[O]C2=O [Example-3, ferric citrate] | above 16 sq. m/g | – |
| O=C1CC2(O)CC(=O)[O][Fe]([O]1)[O]C2=O [Ferric citrate, iron (+3), x (1,2,3-propanetricarboxylic acid, 2-hydroxy-), y (H2O)] | – | above 20 m^2/g |
